Consider 18 compounds from patent US20090048301A1 (IMCLONE SYSTEMS INCORPORATED, priority 2003, published 2009).

One experiment relates to bovine tubulin. Nature of the experiment: In vitro tubulin polymerization assay (turbidity at 340 nm). The experiment is classed as biochemical. The settings on record: 10 μM compound, 30 minute data point, vs 1% DMSO control. The method in brief:
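Bovine tubulin (97%, <3% MAPs) at 3 mg/ml final in G-PEM pH 7 with 1 mM GTP and 5% glycerol, added cold to compound wells at 37° C (1% DMSO final). A340 read each minute for 30 min; percent inhibition from 30-min point versus DMSO control.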

Experiment [1] has as its system A431, human epidermoid carcinoma cells. Nature of the experiment: Cell cycle analysis (FACS), mitotic arrest in G2/M. It counts as cell-based. The settings on record: Homo sapiens, A-431, 24 h, read-out: FACS Assay: concentration required to achieve inhibition in FACS assay. Summed up:
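A431 cells, 500,000/well at treatment, exposed to compounds at 0.01–1 μM final (0.1% DMSO) for 24 h. Ethanol-fixed cells RNase-treated (1 μg/ml, 37° C., 15 min), stained with propidium iodide (50 μg/ml, 30 min, RT). DNA ploidy by flow cytometry; mitotic arrest scored as G2/M accumulation.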
(In flow cytometry, cells or beads pass a laser one at a time.)

For experiment [2], the system named is A431 human cancer cell line. In words: Sulphorhodamine B (SRB) growth inhibition assay. The experiment is classed as cell-based. The settings on record: A-431, A431 cells, 48 hours, read-out: SRB Assay: μM required to inhibit tumor cell growth by 50% (GI50). The protocol:
The in vitro growth inhibition activity of the compounds was determined by the Sulphorhodamine B assay. (Skehan P, Storeng R, Scudiero D, Monks A, McMahon J, Vistica D, Warren J T, Bokesch H, Kenney S, Boyd M R. New colorimetric cytotoxicity assay for anticancer-drug screening. J Natl Cancer Inst 82, 1107-1112, 1990). Sulphorhodamine B binds to basic amino acids and stains proteins which can be eluted and detected spectrophotometically by measuring absorbance at 515 nm. The absorbance was indicative of the total protein content of the cells fixed to the walls of the plate well at a given time by trichloroacetic acid, which is a measure of the viable cell concentration.
The in vitro growth inhibition activity of the compounds was determined using a Sulphorhodamine B assay. See, Skehan et al., “New colorimetric cytotoxicity assay for anticancer-drug screening,” J. Natl. Cancer Inst., 82, 1107-1112, (1990). Sulphorhodamine B binds to basic amino acids and stains proteins which can be eluted and detected spectrophotometically by measuring absorbance at 515 nm. The absorbance indicates the total protein content of the cells fixed to the walls of the plate well at a given time by trichloroacetic acid, which is a measure of the viable cell concentration.
The reagents used in the assay can be purchased from commercial sources and include Sulphorhodamine B 0.4% (w/v) in 1% (v/v) acetic acid (Sigma Cat#S-1402); trichloroacetic acid 50% (w/v) in deionized water, working solution (Sigma Cat#T-9159); and trizma base (Tris) 10 mM working solution, pH 7.5 (Sigma Cat#T-7693).
The procedure was cared out over four days. In Day 1, the cells were seeded in a seed 10,000 cells/100 μL/well in 96 well plate in duplicates as per template. Also, seed cells in extra plate for time zero (To plate). Thereafter, the cells were incubated for 24 hours at 37° C. with 5% CO2.
On Day 2, the test compound was added to the cells at five log doses from 100 μM to 0.01 μM (Volume of addition=100 μL in 1% DMSO for all compound concentrations, Control treatment=1% DMSO).
The compounds were prepared by weighing the test compounds in 1.5 ml eppendorf tubes and calculating the volume of DMSO to be added to bring the concentration of the compound to 20 mM. Thereafter, a 20 mM stock was made and diluted by four 10 fold dilutions in DMSO to get 2, 0.2, 0.02 and 0.002 mM solutions. Each solution was diluted 100 times (10 μL to 1 ml medium) and a further addition to the culture plate (100 μL) to half the concentration of cells was made. The final well concentration for 20 mM stock was 100 μM and similarly with other test concentrations.
The cells were incubated for 48 hours at 37° C. with 5% CO2 and terminated by adding 50 μL of 50% cold trichloroacetic acid (10% to final). Thereafter, the cells were incubated for one hour at 4° C.
On Day 4, the cells were fixed to the wells by the addition of 50 μL of 50% cold trichloroacetic acid (10% to final) and incubated for 1 hour at 4° C. The supernatant was discarded by force inverting the plate into the sink followed by washing thrice with tap water and the plates are then air-dried. 100 μL SRB (0.4% in 1% acetic acid) was added to each well and the plates were incubated for 10 minutes at room temperature. Unbound dye was removed by force inverting the plate into the sink and washing thrice with 1% acetic acid. Thereafter, the plates were allowed to air dry.
Bound SRB was solubilized with 100 μL of 10 mM Tris, pH 7.4 and the absorbance was measured at a wavelength of 515 nm.
A sample set of calculations was performed as follows. The percentage growth was calculated by T-To/C-To X 100 if T>To and T-To/To X 100 if T<To, wherein T is Test OD (with compound), C is Control OD, To is Time Zero OD (cell growth at the time of drug addition). […]

The GI50 is the concentration giving 50% growth inhibition.

Turning to `COc1cc(Nc2nnc(-c3cccnc3Nc3cc(OC)cc(OC)c3)[nH]2)cc(OC)c1` [Compound 1, (3,5-Dimethoxy-phenyl)-{3-[5-(3,5-dimethoxy-phenylamino)-4H-[1,2,4]triazol-3-yl]-pyridin-2-yl}-amine], the “Tubulin Assay: percent inhibition at 10 μM based on 30 minute data” value (“Tubulin Assay: percent inhibition” for short) in the experiment with bovine tubulin is given as 45%. Moreover, in experiment [1], the minimal effective concentration was found to be 0.1 µM. Besides, the GI50 in experiment [2] came out at 5.5 µM.
On the same counts, the results for `COc1cccc(Nc2nnc(-c3cccnc3Nc3cc(OC)cc(OC)c3)[nH]2)c1` [Compound 2, (3,5-Dimethoxy-phenyl)-{3-[5-(3-methoxy-phenylamino)-4H-[1,2,4]triazol-3-yl]-pyridin-2-yl}-amine] are 80%, 0.1 µM and 0.7 µM.
For the compound `COc1ccc(Nc2nnc(-c3cccnc3Nc3cc(OC)cc(OC)c3)[nH]2)cc1` [Compound 3, (3,5-Dimethoxy-phenyl)-{3-[5-(4-methoxy-phenylamino)-4H-[1,2,4]triazol-3-yl]-pyridin-2-yl}-amine], the “Tubulin Assay: percent inhibition” value in the experiment with bovine tubulin came out at 72%. The minimal effective concentration in experiment [1] came out at 10 µM. For the same compound, the GI50 in experiment [2] worked out at 2.5 µM.
For `COc1cc(Nc2ncccc2-c2nnc(Nc3ccc(C#N)cc3)[nH]2)cc(OC)c1` [Compound 4, 4-{5-[2-(3,5-Dimethoxy-phenylamino)-pyridin-3-yl]-4H-[1,2,4]triazol-3-ylamino}-benzonitrile], the “Tubulin Assay: percent inhibition” value in the experiment with bovine tubulin worked out at 32%. Also, in experiment [1], the minimal effective concentration was 10 µM. In experiment [2], the 50% growth inhibitory concentration (GI50) amounted to 4 µM.
With `COc1cc(Nc2ncccc2-c2nnc(Nc3cc(OC)ccc3OC)[nH]2)cc(OC)c1` [Compound 5, (3,5-Dimethoxy-phenyl)-{3-[5-(2,5-dimethoxy-phenylamino)-4H-[1,2,4]triazol-3-yl]-pyridin-2-yl}-amine], in the experiment on bovine tubulin, the “Tubulin Assay: percent inhibition” value was determined as 20%. Moreover, the minimal effective concentration in experiment [1] was found to be 100 µM. Also, the GI50 in experiment [2] was 10 µM.
`COc1cc(Nc2ncccc2-c2nnc(Nc3ccc(N(C)C)cc3)[nH]2)cc(OC)c1` [Compound 6, (3,5-Dimethoxy-phenyl)-{3-[5-(4-dimethylamino-phenylamino)-4H-[1,2,4]triazol-3-yl]-pyridin-2-yl}-amine]: the “Tubulin Assay: percent inhibition” value in the experiment with bovine tubulin was found to be 35%. The minimal effective concentration in experiment [1] stood at 10 µM. Moreover, the GI50 in experiment [2] was determined as 20 µM.
Taken in the same sequence, the figures for `COc1cccc(Nc2nnc(-c3cccnc3Nc3ccc4c(c3)OCO4)[nH]2)c1` [Compound 7, Benzo[1,3]dioxol-5-yl-{3-[5-(3-methoxy-phenylamino)-4H-[1,2,4]triazol-3-yl]-pyridin-2-yl}-amine] were 47%, 10 µM and 15 µM.
On the same counts, the results for `CN(C)c1ccc(Nc2nnc(-c3cccnc3Nc3ccc4c(c3)OCO4)[nH]2)cc1` [Compound 11, Benzo[1,3]dioxol-5-yl-{3-[5-(4-dimethylamino-phenylamino)-4H-[1,2,4]triazol-3-yl]-pyridin-2-yl}-amine] are 82%, 10 µM and 0.25 µM.
Taken in the same sequence, the figures for `COc1cccc(Nc2nnc(-c3cccnc3NCc3ccc4c(c3)OCO4)[nH]2)c1` [Compound 13, Benzo[1,3]dioxol-5-ylmethyl-{3-[5-(3-methoxy-phenylamino)-4H-[1,2,4]triazol-3-yl]-pyridin-2-yl}-amine] were 80%, 1 µM and 2 µM.
`COc1ccc(OC)c(Nc2nnc(-c3cccnc3NCc3ccc4c(c3)OCO4)[nH]2)c1` [Compound 14, Benzo[1,3]dioxol-5-ylmethyl-{3-[5-(2,5-dimethoxy-phenylamino)-4H-[1,2,4]triazol-3-yl]-pyridin-2-yl}-amine]: the “Tubulin Assay: percent inhibition” value with bovine tubulin was 24%. Also, in experiment [1], the minimal effective concentration was 100 µM. Also, the GI50 in experiment [2] is 20 µM.
On to `FC(F)(F)Oc1ccc(Nc2nnc(-c3cccnc3NCc3ccc4c(c3)OCO4)o2)cc1` [Compound 179, Benzo[1,3]dioxol-5-ylmethyl-{3-[5-(4-trifluoromethoxy-phenylamino)-[1,3,4]oxadiazol-2-yl]-pyridin-2-yl}-amine], for which, in the experiment with bovine tubulin, the “Tubulin Assay: percent inhibition” value amounted to 28%. Moreover, the concentration for 50% growth inhibition (GI50) in experiment [2] is 30 µM.
As for `COc1ccc(Nc2nnc(-c3cccnc3NCc3ccc4c(c3)OCO4)o2)cc1OC` [Compound 180, Benzo[1,3]dioxol-5-ylmethyl-{3-[5-(3,4-dimethoxy-phenylamino)-[1,3,4]oxadiazol-2-yl]-pyridin-2-yl}-amine], the “Tubulin Assay: percent inhibition” value in the experiment with bovine tubulin is 32%. The GI50 in experiment [2] was 1.5 µM.
As for `COc1cccc(Nc2nnc(-c3cccnc3NCc3cccnc3)o2)c1` [Compound 185, {3-[5-(3-Methoxy-phenylamino)-[1,3,4]oxadiazol-2-yl]-pyridin-2-yl}-pyridin-3-ylmethyl-amine], the “Tubulin Assay: percent inhibition” value in the experiment on bovine tubulin is 40%. Further, in experiment [2], the GI50 was determined as 30 µM.
With `COc1cccc(Nc2nnc(-c3cccnc3NCc3ccc4c(c3)OCO4)o2)c1` [Compound 186, Benzo[1,3]dioxol-5-ylmethyl-{3-[5-(3-methoxy-phenylamino)-[1,3,4]oxadiazol-2-yl]-pyridin-2-yl}-amine], the “Tubulin Assay: percent inhibition” value in the experiment on bovine tubulin is reported as 42%. Moreover, the GI50 in experiment [2] was determined as 100 µM.
In the case of `COc1cc(Nc2nnc(-c3cccnc3Nc3cc(OC)cc(OC)c3)o2)cc(OC)c1` [Compound 187, (3,5-Dimethoxy-phenyl)-{3-[5-(3,5-dimethoxy-phenylamino)-[1,3,4]oxadiazol-2-yl]-pyridin-2-yl}-amine], in the experiment with bovine tubulin, the “Tubulin Assay: percent inhibition” value was 48%. Moreover, the GI50 in experiment [2] came to 80 µM.
In the case of `COc1ccc(Nc2nnc(-c3cccnc3NCc3cccnc3)o2)cc1OC` [Compound 190, {3-[5-(3,4-Dimethoxy-phenylamino)-[1,3,4]oxadiazol-2-yl]-pyridin-2-yl}-pyridin-3-ylmethyl-amine], the “Tubulin Assay: percent inhibition” value with bovine tubulin came out at 56%. Moreover, the 50% growth inhibitory concentration (GI50) in experiment [2] is 15 µM.
Turning to `O=C1CCCN1CCCNc1ncccc1-c1nnc(Nc2ccc3c(c2)OCO3)o1` [Compound 194, 1-(3-{3-[5-(Benzo[1,3]dioxol-5-ylamino)-[1,3,4]oxadiazol-2-yl]-pyridin-2-ylamino}-propyl)-pyrrolidin-2-one], the “Tubulin Assay: percent inhibition” value in the experiment with bovine tubulin was 80%. In experiment [2], the GI50 came out at 3 µM.
With `c1ccc(-c2nnc(Nc3ccc4c(c3)OCO4)o2)c(NCc2ccncc2)c1` [Compound 225, Benzo[1,3]dioxol-5-yl-(5-{2-[(pyridin-4-ylmethyl)-amino]-phenyl}-[1,3,4]oxadiazol-2-yl)-amine], the “Tubulin Assay: percent inhibition” value with bovine tubulin is given as 91%. Further, the GI50 in experiment [2] came to 15 µM.
